These results are taken from patent publication US10047092B2 (Janssen Pharmaceutica NV, priority 2013, dated 2018).

The structures appear in SMILES notation.

Sequence of P2X7 (Q99572 whole entry): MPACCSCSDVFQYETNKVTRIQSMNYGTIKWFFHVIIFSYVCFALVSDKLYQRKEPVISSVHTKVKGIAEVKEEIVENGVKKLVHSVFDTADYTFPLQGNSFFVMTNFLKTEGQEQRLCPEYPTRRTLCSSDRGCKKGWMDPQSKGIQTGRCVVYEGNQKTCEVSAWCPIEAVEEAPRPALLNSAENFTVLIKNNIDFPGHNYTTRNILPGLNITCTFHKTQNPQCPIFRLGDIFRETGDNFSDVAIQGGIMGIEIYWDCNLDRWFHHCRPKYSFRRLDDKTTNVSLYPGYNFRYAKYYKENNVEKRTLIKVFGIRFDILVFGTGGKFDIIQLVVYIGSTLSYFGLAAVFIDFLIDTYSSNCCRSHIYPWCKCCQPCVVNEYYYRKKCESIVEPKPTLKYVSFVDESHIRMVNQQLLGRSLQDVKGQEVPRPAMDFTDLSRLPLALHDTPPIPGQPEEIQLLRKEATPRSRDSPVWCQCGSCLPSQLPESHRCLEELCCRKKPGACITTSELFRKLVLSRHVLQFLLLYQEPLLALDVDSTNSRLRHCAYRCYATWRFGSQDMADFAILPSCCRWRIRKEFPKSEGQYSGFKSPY

The target in the first assay is P2X7 (Homo sapiens (Human), UniProt Q99572). Nature of the assay: P2X7 antagonism in human PBMCs (IL-1β release, LPS + Bz-ATP). It counts as cell-based. The note with it: 10 μM test compound, LPS 30 ng/ml + 0.5 mM Bz-ATP. The protocol:
P2X7 Antagonism in Human Peripheral Blood Mononuclear Cells (PBMCs) and Mouse/Human Whole Blood.
Human blood was collected using a blood donor program. PBMCs were isolated from blood using a Ficoll density gradient technique. Briefly, blood was laid on Ficoll solution and centrifuged at RT for 20 minutes at 2000 rpm. The buffy layer (between red blood cells and plasma) was carefully collected by aspiration, washed with PBS and centrifuged again at 1500 rpm for 15 minutes. The resulting cell pellet was washed and plated on 96 well-plates for experiments. For the Mouse/Human Whole Blood experiments, 150 μl of either mouse or human blood was platted on 96 well-plates. Lipopolysaccharide (LPS) (30 ng/ml) was added to each well and incubated for 1 hour. Test compounds were then added and incubated for 30 minutes. The P2X7 agonist, 2′(3′)-O-(4-benzoylbenzoyl) adenosine 5′-triphosphate (Bz-ATP) was then added at a final concentration of 0.5 mM (PBMC) or 1 mM (blood). Cells were incubated for an additional 1.5 hours. At that point, supernatant was collected and stored for IL-1β assay using manufacturer's protocol for enzyme-linked immunosorbent assay (ELISA). Data was expressed as percent control, where control is defined as the difference in IL-113 release in LPS+Bz-ATP samples and LPS only samples. Data was plotted as response (% control) versus concentration to generate IC50 values. […] In Table 2, when the data cell has been left blank, it is intended to mean that the compound was not tested in that assay.
Consider `C[C@H]1Cn2c(nnc2-c2cnccn2)C(=O)N1Cc1cccc(Cl)c1Cl` [Example 13, (6S)-7-(2,3-Dichlorobenzyl)-6-methyl-3-pyrazin-2-yl-6,7-dihydro[1,2,4]triazolo[4,3-a]pyrazin-8(5H)-one], for which the “PBMC 10 μM (% control)” value worked out at 15.4 % control.
With `CC(c1cccc(C(F)(F)F)c1Cl)N1C(=O)c2nnc(-c3cnccn3)n2C[C@@H]1C` (stereo partly drawn) [Example 93], the “PBMC 10 μM (% control)” value stood at 4.5 % control.
With `C[C@H]1Cn2c(nnc2-c2cnccn2)C(=O)N1Cc1cccc(C(F)(F)F)c1Cl` [Example 16, (6S)-7-[2-Chloro-3-(trifluoromethyl)benzyl]-6-methyl-3-pyrazin-2-yl-6,7-dihydro[1,2,4]triazolo[4,3-a]pyrazin-8(5H)-one], the “PBMC 10 μM (% control)” value is 13.4 % control.
Consider `CC[C@H]1Cn2c(nnc2-c2cnccn2)C(=O)N1Cc1cccc(C(F)(F)F)c1Cl` [Example 71, (6S)-7-[2-Chloro-3-(trifluoromethyl)benzyl]-6-ethyl-3-pyrazin-2-yl-6,7-dihydro[1,2,4]triazolo[4,3-a]pyrazin-8(5H)-one], for which the “PBMC 10 μM (% control)” value turned out to be 1.2 % control.

The same assay, now with this note: P2X7, 10 μM test compound, LPS 30 ng/ml + 0.5 mM Bz-ATP, read-out: PBMC 10 μM (% control).
For `O=C1c2nnc(-c3ncccn3)n2C[C@H](C2CC2)N1Cc1cccc(C(F)(F)F)c1Cl` (single isomer, unassigned) [Example 66, (6S*)-7-[2-Chloro-3-(trifluoromethyl)benzyl]-6-cyclopropyl-3-pyrimidin-2-yl-6,7-dihydro[1,2,4]triazolo[4,3-a]pyrazin-8(5H)-one], the remaining activity at 10 µM was found to be 20.7%.
On to `O=C1c2nnc(-c3ncccn3)n2C[C@@H](C2CC2)N1Cc1cccc(C(F)(F)F)c1Cl` (single isomer, unassigned) [Example 65, (6R*)-7-[2-Chloro-3-(trifluoromethyl)benzyl]-6-cyclopropyl-3-pyrimidin-2-yl-6,7-dihydro[1,2,4]triazolo[4,3-a]pyrazin-8(5H)-one], for which the remaining activity at 10 µM came to 15.9%.
